According to the supplement of paper PMC12420376:

How the values were obtained:
OVCAR8 = test: drug sensitivity score (DSS2) on cancer cell count; higher = more sensitive; extreme values may be limits of the assay; settings: 72 h
Outline: (§1)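 Ovarian cancer cells were cultured either alone or directly mixed 1:1 with lung or skin fibroblasts and plated onto 384-well plates acoustically pre-spotted with 528 approved and investigational compounds at 5 concentrations for 72 h of treatment. After fixation, cells were immunostained for CK8/18 with Hoechst and imaged at 10× across 4 fields to count cancer cells. Responses were fitted with 4-parameter logistic curves, and from these fits a drug sensitivity score was derived in Breeze, with screen quality assessed by Z'.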

KURAMOCHI = test: as above; settings: 72 h
Outline: as §1

[1] = co-cultured fibroblast: BJHTERT
[2] = co-cultured fibroblast: none (monoculture)

| SMILES | drug sensitivity score (OVCAR8; [1]) | drug sensitivity score (OVCAR8; co-cultured fibroblast: WI38) | drug sensitivity score (OVCAR8; [2]) | drug sensitivity score (KURAMOCHI; [1]) | drug sensitivity score (KURAMOCHI; co-cultured fibroblast: WI38) | drug sensitivity score (KURAMOCHI; [2]) |
| --- | --- | --- | --- | --- | --- | --- |
| C=CC(=O)Nc1cccc(Oc2nc(Nc3ccc(N4CCN(C)CC4)cc3)nc3ccsc23)c1 [Olmutinib] | 0 DSS | 0 DSS | 0 DSS | 2.1 DSS | 2.7 DSS | 0 DSS |
| CON(C)C(=O)N1N=C(c2cc(F)ccc2F)S[C@@]1(CCCN)c1ccccc1 [Filanesib] | 21.9 DSS | 32.9 DSS | 29.3 DSS | 21.4 DSS | 22.4 DSS | 16.2 DSS |
| Cc1ccc(-c2cc(C(F)(F)F)nn2-c2ccc(S(N)(=O)=O)cc2)cc1 [Celecoxib] | 0.1 DSS | 0 DSS | 0.1 DSS | 0 DSS | 0 DSS | 0.5 DSS |
| CC(C)[C@H]1C(=O)N[C@@H](CCCNC(=N)N)C(=O)NCC(=O)N[C@@H](CC(=O)O)C(=O)N[C@H](Cc2ccccc2)C(=O)N1C [Cilengitide] | 9.6 DSS | 16.3 DSS | 13.2 DSS | 5.8 DSS | 3.3 DSS | 7.4 DSS |
| CC(C)(C#N)c1cc(Cn2cncn2)cc(C(C)(C)C#N)c1 [Anastrozole] | 0 DSS | 0 DSS | 0 DSS | 0 DSS | 0 DSS | 0 DSS |
| Cc1ccc(F)c(NC(=O)Nc2ccc(-c3cccc4[nH]nc(N)c34)cc2)c1 [Linifanib] | 0 DSS | 0 DSS | 0.5 DSS | 0 DSS | 0 DSS | 0 DSS |
| Cc1cc(C(C)Nc2ccccc2)c2nc(N3CCOCC3)cc(=O)n2c1 (stereo unspecified) [TGX-221] | 8.5 DSS | 7.2 DSS | 0 DSS | 7.7 DSS | 0 DSS | 4 DSS |
| CN1C(=O)N[C@H](Cc2c[nH]c3c(Cl)cccc23)C1=O [Necrostatin 2] | 0 DSS | 0 DSS | 0 DSS | 0 DSS | 0 DSS | 0 DSS |
| CNC(=O)c1nn(C)c2c1C(C)(C)Cc1cnc(Nc3ccc(N4CCN(C)CC4)cc3)nc1-2 [Milciclib] | 13.9 DSS | 12.3 DSS | 11.4 DSS | 11.2 DSS | 9.8 DSS | 10 DSS |
| COc1cccc2c1c(O)c(C(=O)N(C)c1ccc(C(F)(F)F)cc1)c(=O)n2C [Tasquinimod] | 0 DSS | 0 DSS | 0 DSS | 0 DSS | 0 DSS | 0 DSS |
| CCS(=O)(=O)Nc1ccc(Oc2ccc(F)cc2F)c(-c2cn(C)c(=O)c3[nH]ccc23)c1 [Mivebresib] | 35.4 DSS | 26.9 DSS | 30.9 DSS | 22.6 DSS | 21.7 DSS | 17.5 DSS |
| CO[C@H]1C(=O)[C@]2(C)[C@@H](OC)C[C@H]3OC[C@@]3(OC(C)=O)[C@H]2[C@H](OC(=O)c2ccccc2)[C@]2(O)C[C@H](OC(=O)[C@H](O)[C@@H](NC(=O)OC(C)(C)C)c3ccccc3)C(C)=C1C2(C)C [Cabazitaxel] | 39.1 DSS | 36 DSS | 26 DSS | 27.5 DSS | 27.8 DSS | 21.4 DSS |
| N#Cc1ccnc(N2C(=O)CC[C@H]2C(=O)N(c2cncc(F)c2)[C@H](C(=O)NC2CC(F)(F)C2)c2ccccc2Cl)c1 [Ivosidenib] | 2.1 DSS | 0.3 DSS | 0.2 DSS | 0 DSS | 0 DSS | 0 DSS |
| C=CC(=O)N1CC/C(=C\c2ccc(F)c([N+](=O)[O-])c2)C(=O)/C(=C/c2ccc(F)c([N+](=O)[O-])c2)C1 [VLX1570] | 24.8 DSS | 31.1 DSS | 31.7 DSS | 27.4 DSS | 24.7 DSS | 29 DSS |
| Cc1noc2c1-c1ccccc1C(c1ccc(Cl)cc1)=N[C@H]2CC(N)=O [CPI-0610] | 10.9 DSS | 6.5 DSS | 13.8 DSS | 0 DSS | 8.5 DSS | 5.7 DSS |
| CN(C)CCOc1ccc(/C(=C(/CCCl)c2ccccc2)c2ccccc2)cc1 [Toremifene] | 3.2 DSS | 0 DSS | 3.5 DSS | 2.1 DSS | 0.8 DSS | 2.3 DSS |
| CCS(=O)(=O)N1CC(CC#N)(n2cc(-c3ncnc4[nH]ccc34)cn2)C1 [Baricitinib] | 0 DSS | 1.1 DSS | 0 DSS | 0 DSS | 0 DSS | 0 DSS |
| O=C(NOCCO)c1ccc2cncn2c1Nc1ccc(I)cc1F [GDC-0623] | 7.5 DSS | 0 DSS | 19.2 DSS | 0 DSS | 0 DSS | 18.9 DSS |
| Cn1ncc(Cl)c1-c1cc(C(=O)N[C@H](CN)Cc2cccc(F)c2)sc1Cl [Afuresertib] | 0.3 DSS | 0 DSS | 0 DSS | 1.1 DSS | 0 DSS | 0 DSS |
| CN1CC[C@@H](NC(=O)Nc2ccc(C#N)cc2)C[C@@H]1c1nc2ccccc2[nH]1 [Glasdegib] | 0 DSS | 0 DSS | 0 DSS | 0.5 DSS | 1.1 DSS | 0 DSS |
| Cc1ncc(Cl)cc1NCc1ccc(C(=O)N[C@@H](CC2CCCC2)C(=O)NC2CC2)s1 | 0 DSS | 0 DSS | 0 DSS | 0 DSS | 0 DSS | 0 DSS |
| O=C(Nc1cccc(Nc2ncc(Br)c(NCCc3cnc[nH]3)n2)c1)N1CCCC1 [BX-912] | 9.1 DSS | 7.8 DSS | 7.3 DSS | 10.4 DSS | 9.6 DSS | 8.7 DSS |
| C[C@H](Nc1ncnc2nc[nH]c12)c1cc2cccc(Cl)c2c(=O)n1-c1ccccc1 [Duvelisib] | 0.4 DSS | 0 DSS | 0 DSS | 4.6 DSS | 0.5 DSS | 0.3 DSS |
| CC[C@@H]1C(=O)OC[C@@H]1Cc1cncn1C [Pilocarpine] | 0 DSS | 19.4 DSS | 0 DSS | 0 DSS | 0 DSS | 0 DSS |
| CNc1nc(Nc2cn(C(C)(C)C#N)nc2C)ncc1C(F)(F)F [GNE-0877] | 0 DSS | 1.8 DSS | 0 DSS | 0 DSS | 0 DSS | 0 DSS |
| CC1(C)OCCn2c1nc1c(N3CCOCC3)nc(-c3cnc(N)nc3)nc12 [GDC-0084] | 8.3 DSS | 3.8 DSS | 11.9 DSS | 12.7 DSS | 11.5 DSS | 12.1 DSS |
